Measured values taken from patent US8324232B2, “4-pyrimidinesulfamide derivative” (Actelion Pharmaceuticals Ltd., priority 2007, dated 2012).
pIC50: −log10 of the molar value.

Experiments:
[1] = target: T1, human recombinant ETA receptors (Homo sapiens, UniProt P25101); experiment: Inhibition of endothelin binding to membranes from CHO cells carrying human ETA receptors
T1 construct: expressed in transfected cells; host or cells: CHO cells (microsomal membranes)
T1 sequence (P25101 21-427): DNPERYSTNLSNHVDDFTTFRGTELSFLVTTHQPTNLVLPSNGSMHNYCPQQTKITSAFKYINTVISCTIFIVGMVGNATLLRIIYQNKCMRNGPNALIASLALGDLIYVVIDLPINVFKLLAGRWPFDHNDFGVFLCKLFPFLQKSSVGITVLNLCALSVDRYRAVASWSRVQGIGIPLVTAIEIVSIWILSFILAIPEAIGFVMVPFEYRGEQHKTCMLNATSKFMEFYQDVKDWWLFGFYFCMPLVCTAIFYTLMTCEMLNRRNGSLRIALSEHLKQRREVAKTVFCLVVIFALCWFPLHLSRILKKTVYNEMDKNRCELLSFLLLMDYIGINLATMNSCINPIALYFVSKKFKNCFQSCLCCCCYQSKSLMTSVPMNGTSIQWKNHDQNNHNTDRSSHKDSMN
Method: 1) Inhibition of Endothelin Binding to Membranes from CHO Cells Carrying Human ET Receptors
For competition binding studies, membranes of CHO cells expressing human recombinant ETA or ETB receptors were used.
All the test compounds were dissolved, diluted and added in DMSO.

ETA receptors = target: T2, ETA receptors (Rattus norvegicus, UniProt P26684); experiment: Inhibition of endothelin-1-induced contraction on isolated rat aortic rings
T2 construct: The thoracic aorta or trachea were excised, dissected and cut in 3-5 mm rings; from tissue; host or cells: thoracic aorta rings of adult Wistar rats, endothelium removed
T2 sequence (P26684 21-426): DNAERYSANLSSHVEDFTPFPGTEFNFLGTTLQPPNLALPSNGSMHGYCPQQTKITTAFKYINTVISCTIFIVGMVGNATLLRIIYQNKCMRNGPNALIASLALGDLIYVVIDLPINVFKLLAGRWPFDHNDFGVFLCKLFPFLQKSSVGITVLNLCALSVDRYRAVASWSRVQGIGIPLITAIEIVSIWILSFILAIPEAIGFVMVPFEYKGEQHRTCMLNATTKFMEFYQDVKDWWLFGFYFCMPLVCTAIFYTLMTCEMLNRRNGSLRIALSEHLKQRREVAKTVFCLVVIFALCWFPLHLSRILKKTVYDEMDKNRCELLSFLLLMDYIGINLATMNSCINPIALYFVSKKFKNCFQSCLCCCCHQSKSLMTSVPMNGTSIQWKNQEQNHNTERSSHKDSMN
Method: 2) Inhibition of Endothelin-Induced Contractions on Isolated Rat Aortic Rings (ETA Receptors) and Rat Tracheal Rings (ETB Receptors)
The functional inhibitory potency of the endothelin antagonists was assessed by their inhibition of the contraction induced by endothelin-1 on rat aortic rings (ETA receptors) and of the contraction induced by sarafotoxin S6c on rat tracheal rings (ETB receptors). Adult Wistar rats were anesthetized and exsanguinated. The thoracic aorta or trachea were excised, dissected and cut in 3-5 mm rings. The endothelium/epithelium was removed by gentle rubbing of the intimal surface. Each ring was suspended in a 10 mL isolated organ bath filled with Krebs-Henseleit solution (in mM; NaCl 115, KCl 4.7, MgSO4 1.2, KH2PO4 1.5, NaHCO3 25, CaCl2 2.5, glucose 10) kept at 37° C. and gassed with 95% O2 and 5% CO2. The rings were connected to force transducers and isometric tension was recorded (EMKA Technologies SA, Paris, France). The rings were stretched to a resting tension of 3 g (aorta) or 2 g (trachea). […] The functional inhibitory potency of the test compound was assessed by calculating the concentration ratio, i.e. the shift to the right of the EC50 induced by different concentrations of test compound. […]

[2] = Pharmacokinetics in the rat after single-dose oral administration; type: in vivo; details: male Wistar rats, plasma; for half-life: oral gavage 10 mg/kg; for clearance: oral, 10 mg/kg
Method: Pharmacokinetics in the Rat After Single-Dose Oral Administration
Male Wistar rats with a body weight of 200-250 g were used for pharmacokinetic experiments after an acclimatization period of at least 7 days. All animals were housed under conditions in accordance with the NIH guidelines. Two days prior to the experiment, rats were anesthetized with a mixture of ketamin (90 mg/kg) and xylazine 2% (10 mg/kg) i.p. A catheter was implanted under aseptic conditions into the jugular vein to allow for multiple blood sampling. After recovery from general anesthesia, animals were housed individually under standard laboratory conditions in Makrolon type-3 cages with wire mesh tops and standardized softwood bedding. Animals had free access to water and food during the recovery period and the entire duration of the experiment.
Pharmacokinetic experiments were performed in Wistar rats (m=2-3) after jugular vein cannulation to allow for serial blood sampling. Test compounds were administered orally by gavage at doses of 10 mg/kg. Blood was then sampled at pre-defined time points over a period of 24 h and plasma prepared by centrifugation. Drug concentrations in plasma were quantified using liquid chromatography coupled to mass spectrometry (limit of quantification: 4.6 ng/mL). Pharmacokinetic evaluation was performed using non-compartmental analysis.

SMILES	pIC50 [1]	Kb (ETA receptors)	half-life [2]	clearance [2]
NS(=O)(=O)Nc1ncnc(OCCOc2ncc(Br)cn2)c1-c1ccc(Br)cc1 [Compound of formula I, {5-(4-bromo-phenyl)-6-[2-(5-bromo-pyrimidin-2-yloxy)-ethoxy]-pyrimidin-4-yl}-sulfamide]	8.43	200 nM	8.7 h	1.3 mL/min/kg
CCCNS(=O)(=O)Nc1ncnc(OCCOc2ncc(Br)cn2)c1-c1ccc(Br)cc1 [Reference Compound, Propylsulfamic acid [5(4 bromo-phenyl)-6-[2-(5-bromo-pyrimidin-2-yloxy)-ethoxy]-pyrimidin-4-yl]-amide, reference compound]	–	–	2.8 to 4.2 h	5.7 to 10 mL/min/kg
